Data from patent US20160270428A1 (priority 2015, published 2016).

Test system: Bacillus amyloliquefaciens LN
Type: cell-based

Compound	Zone diameter of LN	sensitivity of LN strain to the antibiotic according to CLSI
[H]/N=C(/N)N[C@H]1[C@H](O)[C@@H](O)[C@H](O[C@@H]2O[C@@H](C)[C@](O)(C=O)[C@H]2O[C@@H]2O[C@@H](CO)[C@H](O)[C@@H](O)[C@@H]2NC)[C@@H](N/C(N)=N\[H])[C@@H]1O [Streptomycin]	14.3 ± 0.5 mm	no antibiotics sensitivity and resistance
NCC[C@H](O)C(=O)N[C@@H]1C[C@H](N)[C@@H](O[C@H]2O[C@H](CN)[C@@H](O)[C@H](O)[C@H]2O)[C@H](O)[C@H]1O[C@H]1O[C@H](CO)[C@@H](O)[C@H](N)[C@H]1O [Amikacin]	23.0 ± 0.8 mm	
CC1(C)S[C@@H]2[C@H](NC(=O)[C@H](N)c3ccccc3)C(=O)N2[C@H]1C(=O)O [Ampicillin]	16.2 ± 1.0 mm	no antibiotics sensitivity and resistance
O=C(N[C@H](CO)[C@H](O)c1ccc([N+](=O)[O-])cc1)C(Cl)Cl [Chloramphenicol]	30.7 ± 5.9 mm	
Cefoxime	28.7 ± 7.0 mm	
CN[C@H](CC(C)C)C(=O)N[C@H]1C(=O)N[C@@H](CC(N)=O)C(=O)N[C@H]2C(=O)N[C@H]3C(=O)N[C@H](C(=O)N[C@H](C(=O)O)c4cc(O)cc(O)c4-c4cc3ccc4O)[C@H](O)c3ccc(c(Cl)c3)Oc3cc2cc(c3O[C@@H]2O[C@H](CO)[C@@H](O)[C@H](O)[C@H]2O[C@H]2C[C@](C)(N)[C@H](O)[C@H](C)O2)Oc2ccc(cc2Cl)[C@H]1O [Vancomycin]	19.0 ± 0.8 mm	
CC(=O)OCC1=C(C(=O)O)N2C(=O)[C@@H](NC(=O)Cc3cccs3)[C@H]2SC1 [Cephalothin]	36.8 ± 1.7 mm	
CO[C@@]1(NC(=O)Cc2cccs2)C(=O)N2C(C(=O)O)=C(COC(N)=O)CS[C@@H]21 [Cefoxitin]	27.6 ± 1.5 mm	
NC[C@H]1O[C@H](O[C@H]2[C@H](O)[C@@H](O[C@H]3O[C@H](CO)[C@@H](O)[C@H](N)[C@H]3O)[C@H](N)C[C@@H]2N)[C@H](O)[C@@H](O)[C@@H]1O [Kanamycin]	34.0 ± 0.4 mm	
CCn1cc(C(=O)O)c(=O)c2cc(F)c(N3CCNCC3)cc21 [Norfloxacin]	24.7 ± 0.8 mm	
Neomycin	20.9 ± 2.3 mm	
C[C@@H](O)[C@H]1C(=O)N2C(C(=O)O)=C(SCCN=CN)C[C@H]12 [Imipeneem]	29.5 ± 0.2 mm	
Gentamicin	35.0 ± 9.6 mm	
CC[C@H]1OC(=O)[C@H](C)[C@@H](O[C@H]2C[C@@](C)(OC)[C@@H](O)[C@H](C)O2)[C@H](C)[C@@H](O[C@@H]2O[C@H](C)C[C@H](N(C)C)[C@H]2O)[C@](C)(O)C[C@@H](C)C(=O)[C@H](C)[C@@H](O)[C@]1(C)O [Erythromycin]	24.5 ± 1.5 mm	
O=C1CN(/N=C/c2ccc([N+](=O)[O-])o2)C(=O)N1 [Nitrofurantoin]	17.3 ± 0.6 mm	
Cc1onc(-c2ccccc2)c1C(=O)N[C@@H]1C(=O)N2[C@@H]1SC(C)(C)[C@@H]2C(=O)O [Oxacillin]	14.3 ± 0.6 mm	
NC[C@H]1O[C@H](O[C@H]2[C@H](O)[C@@H](O[C@H]3O[C@H](CO)[C@@H](O)[C@H](N)[C@H]3O)[C@H](N)C[C@@H]2N)[C@H](N)C[C@@H]1O [Tobramycin]	22.4 ± 1.8 mm	
Cn1nnnc1SCC1=C(C(=O)O)N2C(=O)[C@@H](NC(=O)[C@H](O)c3ccccc3)[C@H]2SC1 [Cefamandol]	38.2 ± 7.1 mm	
CN(C)[C@@H]1C(O)=C(C(N)=O)C(=O)[C@@]2(O)C(O)=C3C(=O)c4c(O)cccc4[C@@](C)(O)[C@H]3C[C@@H]12 [Tetracycline]	15.3 ± 1.1 mm	
